Assay results: US10604529B2, “Fused imidazole compound having indoleamine 2,3-dioxygenase inhibitory activity” (SHENZHEN CHIPSCREEN BIOSCIENCES CO., LTD., priority 2016, dated 2020)

What was measured:
[1] = target: T1, Recombinant human IDO enzyme (IDO1 enzyme) (Homo sapiens, UniProt P14902); assay: In vitro IDO enzymatic activity assay (kynurenine colour reaction, 492 nm); format: biochemical; details: for IC50: recombinant human IDO enzyme; for inhibition at 0.2 µM: tested compound concentration 200 nM, recombinant human IDO1, read-out: IDO Enzymatic Inhibition Rate (%) (200 nM)
T1 construct: purchased BPS Bioscience, USA
Procedure: The basic principle of the in vitro IDO enzymatic activity detection is to use the IDO enzyme to metabolize the substrate L-tryptophan to produce the product kynurenine in an in vitro enzyme-catalyzed reaction system. The kynurenine is yellow in color reaction with p-dimethylaminobenzaldehyde in glacial acetic acid, and the absorbance value was measured at 492 nm on a microplate reader. The concentration of the product kynurenine in the sample is calculated by comparison to a standard curve of kynurenine with a known concentration.
Recombinant human IDO enzyme (IDO1 enzyme) was purchased from BPS Bioscience, USA.
(3) Control reactions were set up at the same time the detection reaction was carried out. including 0 inhibition positive control with no tested compound added and 0 enzyme negative control with no enzyme added. All tests were run in duplicate.
(4) After the enzymatic reaction was completed, 40 μl of a pre-formulated 30% (w/v) trichloroacetic acid solution was added, and reacted at 65° C. for 20 minutes, followed by centrifugation at 12,000 rpm for 15 minutes.
(5) 100 μl of the supernatant after centrifugation was pipetted and added to a 96-well plate. An equal volume of 2% p-dimethylaminobenzaldehyde in glacial acetic acid was added, well mixed, and allowed to stand at room temperature for 10 minutes.
(6) A microplate reader (ELX800NB) was used to detect the color signal of each well with a detection wavelength of 492 nm.
In addition, the enzymatic inhibition rates were calculated for the tested compounds of different concentration gradients, and then the enzymatic half maximal inhibitory concentration (IC50) was calculated using the IC50 calculator.
According to the above-mentioned method of experiment, the compound of the present disclosure was subjected to an in vitro IDO enzymatic IC50 assay using NLG919 as a positive control compound.

[2] = target: T2, IFN-γ-induced IDO enzyme in HeLa cells (Homo sapiens, UniProt P14902); assay: Detection of IDO inhibitory activity at the cellular level (IFN-γ-induced HeLa cells); format: cell-based; details: 48 hours; for EC50: human IFN-γ induced, read-out: IDO EC50 (nM) at the Cellular Level (column head: IC50 (nM)); for inhibition at 1 µM: tested compound 1 μM, human IFN-γ 50 ng/ml, read-out: IDO Inhibitory Rate (%) (1 μM)
T2 construct: HeLa cells are human cervical cancer cell lines and can up-regulate the expression of endogenous IDO enzymes; endogenous in cells; host or cells: HeLa cells stimulated with human IFN-γ
Source text: In the present disclosure, IFN-γ-induced IDO enzyme expression in HeLa cells were used as a model to detect the IDO enzymatic inhibitory activity of the compound at the cellular level. HeLa cells are human cervical cancer cell lines and can up-regulate the expression of endogenous IDO enzymes under the induction of human IFN-γ. The cell supernatant can be subjected to detection of the enzyme-catalyzed product kynurenine by adding the substrate L-tryptophan to the cell culture solution. […] Recombinant human IFN-γ cytokine purchased from Sangon Biotech, Phenol red-free DMEM for cell culture purchased from Gibco. […] The cells were further cultured for 48 hours and detected. (2) 200 μl of the supernatant from the culture well was pipetted, 40 μl of a pre-formulated 30% (w/v) trichloroacetic acid solution was added, allowed to react at 65° C. for 20 minutes, and then centrifuged at 12,000 rpm for 15 minutes. (3) 100 μl of the supernatant after centrifugation was pipetted and added into a 96-well plate, an equal volume of 2% p-dimethylaminobenzaldehyde in glacial acetic acid was added, and they were mixed well and allowed to stand at room temperature for 10 minutes. (4) A microplate reader (ELX800NB) was used to detect the color signal of each well, and the detection wavelength was 492 nm.

T1 sequence (P14902 whole entry): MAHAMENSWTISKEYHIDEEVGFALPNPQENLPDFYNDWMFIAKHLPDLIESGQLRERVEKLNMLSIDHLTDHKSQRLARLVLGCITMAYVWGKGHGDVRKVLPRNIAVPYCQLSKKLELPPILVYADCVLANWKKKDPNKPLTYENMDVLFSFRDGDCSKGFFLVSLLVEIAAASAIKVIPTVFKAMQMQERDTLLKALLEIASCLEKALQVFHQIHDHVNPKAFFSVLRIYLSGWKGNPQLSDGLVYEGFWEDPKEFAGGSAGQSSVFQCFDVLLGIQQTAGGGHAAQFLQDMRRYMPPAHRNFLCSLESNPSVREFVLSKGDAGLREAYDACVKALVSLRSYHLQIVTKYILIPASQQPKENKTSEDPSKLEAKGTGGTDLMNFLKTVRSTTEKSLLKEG
T2 sequence (P14902 whole entry): as above

SMILES: O=C(COc1ccccc1)N1CCC(C(O)CC2c3ccccc3-c3cncn32)CC1 (stereo not drawn) [Example 7, 1-(4-(1-hydroxy-2-(5H-imidazo[5,1-a]isoindol-5-yl)ethyl)piperidin-1-yl)-2-phenoxyethyl-1-one]
- IC50 [1]: 55 nM
- inhibition at 0.2 µM [1]: 85%
- EC50 [2]: 154 nM
- inhibition at 1 µM [2]: 93%

SMILES: O=C(COc1ccc2[nH]c3ccccc3c2c1)N1CCC(C(O)CC2c3ccccc3-c3cncn32)CC1 (stereo not drawn) [Example 17, 2-((9H-carbazol-3-yl)oxy)-1-(4-(1-hydroxy-2-(5H-imidazo[5,1-a]isoindol-5-yl)ethyl)piperidin-1-yl)ethyl-1-one]
- inhibition at 0.2 µM [1]: 85%
- inhibition at 1 µM [2]: 93%

SMILES: O=C(COc1ccc2ncccc2c1)N1CCC(C(O)CC2c3ccccc3-c3cncn32)CC1 (stereo not drawn) [Example 23, 1-(4-(1-hydroxy-2-(5H-imidazo[5,1-a]isoindol-5-yl)ethyl)piperidin-1-yl)-2-(quinolin-6-yloxy)ethyl-1-one]
- inhibition at 0.2 µM [1]: 80%
- inhibition at 1 µM [2]: 77%

SMILES: O=C(COc1ccc2[nH]ccc2c1)N1CCC(C(O)CC2c3ccccc3-c3cncn32)CC1 (stereo not drawn) [Example 26, 2-((1H-indol-5-yl)oxy)-1-(4-(1-hydroxy-2-(5H-imidazo[5,1-a]isoindol-5-yl)ethyl)piperidin-1-yl)-ethyl-1-one]
- inhibition at 0.2 µM [1]: 89%
- inhibition at 1 µM [2]: 92%

SMILES: O=C(COc1ncnc2[nH]cnc12)N1CCC(C(O)CC2c3ccccc3-c3cncn32)CC1 (stereo not drawn) [Example 33, 2-((7H-purin-6-yl)oxy)-1-(4-(1-hydroxy-2-(5H-imidazo[5,1-a]isoindol-5-yl)ethyl)piperidin-1-yl)ethyl-1-one]
- inhibition at 0.2 µM [1]: 70%

SMILES: O=C(COc1nc2ccccc2o1)N1CCC(C(O)CC2c3ccccc3-c3cncn32)CC1 (stereo not drawn) [Example 37, 2-(benzo[d]oxazolin-2-yloxy)-1-(4-(1-hydroxy-2-(5H-imidazo[5,1-a]isoindol-5-yl)ethyl)piperidin-1-yl)ethyl-1-one]
- inhibition at 0.2 µM [1]: 83%
- inhibition at 1 µM [2]: 97%

SMILES: O=C(COc1ccc(F)c(Cl)c1)N1CCC(C(O)CC2c3ccccc3-c3cncn32)CC1 (stereo not drawn) [Example 39, 2-(3-chloro-4-fluorophenoxy)-1-(4-(1-hydroxy-2-(5H-imidazo[5,1-a]isoindol-5-yl)ethyl)piperidin-1-yl)ethyl-1-one]
- inhibition at 0.2 µM [1]: 90%
- inhibition at 1 µM [2]: 98%

SMILES: O=C(COc1cccc(Cl)c1)N1CCC(C(O)CC2c3ccccc3-c3cncn32)CC1 (stereo not drawn) [Example 41, 2-(3-chlorophenoxy)-1-(4-(1-hydroxy-2-(5H-imidazo[5,1-a]isoindol-5-yl)ethyl)piperidin-1-yl)ethyl-1-one]
- inhibition at 0.2 µM [1]: 92%
- inhibition at 1 µM [2]: 99%

SMILES: O=C(COc1ccc(F)cc1)N1CCC(C(O)CC2c3ccccc3-c3cncn32)CC1 (stereo not drawn) [Example 43, 2-(4-fluorophenoxy)-1-(4-(1-hydroxy-2-(5H-imidazo[5,1-a]isoindol-5-yl)ethyl)piperidin-1-yl)ethyl-1-one]
- inhibition at 0.2 µM [1]: 83%
- inhibition at 1 µM [2]: 89%

SMILES: Cc1ccc(OCC(=O)N2CCC(C(O)CC3c4ccccc4-c4cncn43)CC2)cc1C (stereo not drawn) [Example 46, 2-(3,4-dimethylphenoxy)-1-(4-(1-hydroxy-2-(5H-imidazo[5,1-a]isoindol-5-yl)ethyl)piperidin-1-yl)ethyl-1-one]
- inhibition at 0.2 µM [1]: 83%
- inhibition at 1 µM [2]: 93%

SMILES: O=C(COc1cccc(C(F)(F)F)c1)N1CCC(C(O)CC2c3ccccc3-c3cncn32)CC1 (stereo not drawn) [Example 48, 2-(3-trifluoromethylphenoxy)-1-(4-(1-hydroxy-2-(5H-imidazo[5,1-a]isoindol-5-yl)ethyl)piperidin-1-yl)ethyl-1-one]
- inhibition at 0.2 µM [1]: 89%
- inhibition at 1 µM [2]: 99%

SMILES: O=C(COC1CCCCC1)N1CCC(C(O)CC2c3ccccc3-c3cncn32)CC1 (stereo not drawn) [Example 50, 2-(cyclohexyloxy)-1-(4-(1-hydroxy-2-(5H-imidazo[5,1-a]isoindol-5-yl)ethyl)piperidin-1-yl)ethyl-1-one]
- inhibition at 0.2 µM [1]: 66%
- inhibition at 1 µM [2]: 69%

SMILES: O=C(COc1ccc2oc3ccccc3c2c1)N1CCC(C(O)CC2c3ccccc3-c3cncn32)CC1 (stereo not drawn) [Example 57, 2-(dibenzo[b,d]furan-2-yloxy)-1-(4-(1-hydroxy-2-(5H-imidazo[5,1-a]isoindol-5-yl)ethyl)piperidin-1-yl)ethyl-1-one]
- inhibition at 0.2 µM [1]: 88%
- inhibition at 1 µM [2]: 91%

SMILES: CN(CC(=O)N1CCC(C(O)CC2c3ccccc3-c3cncn32)CC1)c1ccccc1 (stereo not drawn) [Example 59, 1-(4-(1-hydroxy-2-(5H-imidazo[5,1-a]isoindol-5-yl)ethyl)piperidin-1-yl)-2-(methyl(phenyl)amino)ethyl-1-one]
- IC50 [1]: 159 nM
- inhibition at 0.2 µM [1]: 83%
- EC50 [2]: 169 nM
- inhibition at 1 µM [2]: 92%

SMILES: CN(CC(=O)N1CCC(C(O)CC2c3ccccc3-c3cncn32)CC1)c1cccc(Cl)c1 (stereo not drawn) [Example 63]
- inhibition at 0.2 µM [1]: 90%
- inhibition at 1 µM [2]: 99%

SMILES: CN(CC(=O)N1CCC(C(O)CC2c3ccccc3-c3cncn32)CC1)c1ccc(F)c(Cl)c1 (stereo not drawn) [Example 68, 2-((3-chloro-4-fluorophenyl)(methyl)amino)-1-(4-(1-hydroxy-2-(5H-imidazo[5,1-a]isoindol-5-yl)ethyl)piperidin-1-yl)ethyl-1-one]
- inhibition at 0.2 µM [1]: 87%
- inhibition at 1 µM [2]: 98%

SMILES: CN(CC(=O)N1CCC(C(O)CC2c3ccccc3-c3cncn32)CC1)c1ccc(F)cc1 (stereo not drawn) [Example 72, 2-((4-fluorophenyl)(methyl)amino)-1-(4-(1-hydroxy-2-(5H-imidazo[5,1-a]isoindol-5-yl)ethyl)piperidin-1-yl)ethyl-1-one]
- inhibition at 0.2 µM [1]: 73%
- inhibition at 1 µM [2]: 91%

SMILES: Cc1ccc(N(C)CC(=O)N2CCC(C(O)CC3c4ccccc4-c4cncn43)CC2)cc1C (stereo not drawn) [Example 77, 2-((3,4-dimethylphenyl)(methyl)amino)-1-(4-(1-hydroxy-2-(5H-imidazo[5,1-a]isoindol-5-yl)ethyl)piperidin-1-yl)ethyl-1-one]
- inhibition at 0.2 µM [1]: 82%
- inhibition at 1 µM [2]: 95%

SMILES: CCN(CC(=O)N1CCC(C(O)CC2c3ccccc3-c3cncn32)CC1)c1ccccc1 (stereo not drawn) [Example 81, 2-(ethyl(phenyl)amino)-1-(4-(1-hydroxy-2-(5H-imidazo[5,1-a]isoindol-5-yl)ethyl)piperidin-1-yl)ethyl-1-one]
- inhibition at 0.2 µM [1]: 85%
- inhibition at 1 µM [2]: 94%

SMILES: O=C(CNc1ccccc1)N1CCC(C(O)CC2c3ccccc3-c3cncn32)CC1 (stereo not drawn) [Example 85, 1-(4-(1-hydroxy-2-(5H-imidazo[5,1-a]isoindol-5-yl)ethyl)piperidin-1-yl)-2-(phenylamino)ethyl-1-one]
- IC50 [1]: 144 nM
- inhibition at 0.2 µM [1]: 65%
- EC50 [2]: 312 nM
- inhibition at 1 µM [2]: 84%

SMILES: CN(CC(=O)N1CCC(C(O)CC2c3ccccc3-c3cncn32)CC1)c1ccc(C(F)(F)F)cc1 (stereo not drawn) [Example 89, 1-(4-(1-hydroxy-2-(5H-imidazo[5,1-a]isoindol-5-yl)ethyl)piperidin-1-yl)-2-(methyl(4-trifluoromethylphenyl)amino)ethyl-1-one]
- inhibition at 0.2 µM [1]: 68%
- inhibition at 1 µM [2]: 85%

SMILES: CN(CC(=O)N1CCC(C(O)CC2c3ccccc3-c3cncn32)CC1)c1cccc(C(F)(F)F)c1 (stereo not drawn) [Example 94, 1-(4-(1-hydroxy-2-(5H-imidazo[5,1-a]isoindol-5-yl)ethyl)piperidin-1-yl)-2-(methyl(3-trifluoromethylphenyl)amino)ethyl-1-one]
- inhibition at 0.2 µM [1]: 84%
- inhibition at 1 µM [2]: 98%

SMILES: CN(CC(=O)N1CCC(C(O)CC2c3ccccc3-c3cncn32)CC1)c1ccccn1 (stereo not drawn) [Example 109, 1-(4-(1-hydroxy-2-(5H-imidazo[5,1-a]isoindol-5-yl)ethyl)piperidin-1-yl)-2-(methyl(pyridin-2-yl)amino)ethyl-1-one]
- inhibition at 1 µM [2]: 68%

SMILES: CN(CC(=O)N1CCC(C(O)CC2c3ccccc3-c3cncn32)CC1)c1ccc2c(c1)oc1ccccc12 (stereo not drawn) [Example 124, 2-(dibenzo[b,d]furan-3-yl(methyl)amino)-1-(4-(1-hydroxy-2(5H-imidazo[5,1-a]isoindol-5-yl)ethyl)piperidin-1-yl)ethyl-1-one]
- inhibition at 1 µM [2]: 79%
